Columns and labels:
Settings in all cases: banded MIC grade
A. fumigatus = test: Minimum inhibitory concentration, RPMI medium; assay type: cell-based
Procedure: (§1) Between 1 and 5 mgs of compound were accurately weighed out into a sterile Eppendorf tube. The compound was dissolved in DMSO to give a solution containing 5 mg/mL. Tubes were stored at −20° C. until required.
(§2) On the day of testing thawed solutions were vortex mixed to ensure homogeneity. 30 μL of solution was removed and added to 570 μL of sterile water in a separate sterile Eppendorf. The thoroughly mixed solution was used to prepare a series of doubling dilutions in water, in a deep well plate. Thirteen replicate plates were prepared using a Minitrak by aspirating 20 μL from each well into eleven clear polystyrene 96 well plates.
(§3) Assays were also performed in RPMI medium (Roswell Park Memorial Media 1640). To perform MIC tests in this medium, dilutions of compounds are prepared in microtitre plates as described above. Fungal strains to be tested are grown and harvested in an identical manner to that described above, and each organism suspension was diluted in RPMI medium, typically containing 2% glucose and 0.135 M MOPS buffer (pH 7.0) to 0.5-2×10^4cfu/mL, rather than in YAG medium. 80 μL of an organism suspension was added to each well of the plate containing drug dilutions.
(§4) This produced MIC plates with a drug range 50-0.05 mg/L and organism inocula of 1-2×10^4 cfu/mL. All plates were incubated for 24-48 hrs at 35° C. Growth was assessed by monitoring the optical density at 485 nm for each well. The MIC of a compound is the lowest drug concentration that inhibits growth of an organism by >80% compared with a drug free control. The following organisms were tested: C. albicans, C. parapsilosis, C. tropicalis, C. glabrata, C. krusei, A. niger, A. fumigatus, A. terreus, A. flavus, A. terreus 49, and A. fumigatus 210.

A. fumigatus 210 [1] = test: Minimum inhibitory concentration, RPMI medium; assay type: cell-based
Procedure: as §1, §2, §3, §4

A. fumigatus 210 [2] = test: Minimum inhibitory concentration, YAG medium; assay type: cell-based, Aspergillus fumigatus
In short: (§5)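 Spores from 5-day Sabouraud agar cultures were suspended in YAG medium (1% glucose, 1% ammonium chloride, 0.5% yeast extract) at 1-2×10^4 cfu/mL and exposed to doubling dilutions of compound (50-0.05 mg/L) for 24 hrs at 35° C. MIC was the lowest concentration giving >70% growth inhibition by OD485 versus drug-free control.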

Aspergillus fumigatus = test: Minimum inhibitory concentration, YAG medium; assay type: cell-based
In short: as §5

C. glabrata = test: Minimum inhibitory concentration, RPMI medium; assay type: cell-based
In short: (§6)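 Growth inhibition was judged from optical density at 485 nm per well after 24-48 hrs at 35° C. Test compound came from a 5 mg/mL DMSO stock, serially doubled in water before testing in RPMI 1640.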

C. tropicalis = test: Minimum inhibitory concentration, RPMI medium; assay type: cell-based
In short: as §6

A. terreus = test: Minimum inhibitory concentration, RPMI medium; assay type: cell-based
In short: as §6

A. flavus = test: Minimum inhibitory concentration, RPMI medium; assay type: cell-based
In short: as §6

C. krusei = test: Minimum inhibitory concentration, RPMI medium; assay type: cell-based
In short: as §6

A. terreus 49 [3] = test: Minimum inhibitory concentration, RPMI medium; assay type: cell-based
In short: as §6

C. parapsilosis = test: Minimum inhibitory concentration, RPMI medium; assay type: cell-based
In short: as §6

A. niger = test: Minimum inhibitory concentration, RPMI medium; assay type: cell-based
In short: as §6

C. albicans = test: Minimum inhibitory concentration, RPMI medium; assay type: cell-based
In short: as §6

A. terreus 49 [4] = test: Minimum inhibitory concentration, YAG medium; assay type: cell-based, Aspergillus terreus
In short: (§7)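 Growth inhibition was read as absorbance at 485 nm after spores of Aspergillus spp. were exposed for 24 hrs at 35° C to doubling dilutions of the compound. Dilutions were made in water starting from a 5 mg/mL DMSO stock, and MIC values were expressed in mg/L.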

Aspergillus terreus = test: Minimum inhibitory concentration, YAG medium; assay type: cell-based
In short: as §7

Aspergillus flavus = test: Minimum inhibitory concentration, YAG medium; assay type: cell-based
In short: as §7

Aspergillus niger = test: Minimum inhibitory concentration, YAG medium; assay type: cell-based
In short: as §7

Structure (SMILES)	MIC grade, A. FUMIGATUS, RPMI media (A. fumigatus)	MIC grade, A. FUMIGATUS 210, RPMI media (A. fumigatus 210 [1])	MIC grade, A. FUMIGATUS 210, YAG media (A. fumigatus 210 [2])	MIC grade, A. FUMIGATUS, YAG media (Aspergillus fumigatus)	MIC grade, C. GLABRATA, RPMI media (C. glabrata)	MIC grade, C. TROPICALIS, RPMI media (C. tropicalis)	MIC grade, A. TERREUS, RPMI media (A. terreus)	MIC grade, A. FLAVUS, RPMI media (A. flavus)	MIC grade, C. KRUSEI, RPMI media (C. krusei)	MIC grade, A. TERREUS 49, RPMI media (A. terreus 49 [3])	MIC grade, C. PARAPSILOSIS, RPMI media (C. parapsilosis)	MIC grade, A. NIGER, RPMI media (A. niger)	MIC grade, C. ALBICANS, RPMI media (C. albicans)	MIC grade, A. TERREUS 49, YAG media (A. terreus 49 [4])	MIC grade, A. TERREUS, YAG media (Aspergillus terreus)	MIC grade, A. FLAVUS, YAG media (Aspergillus flavus)	MIC grade, A. NIGER, YAG media (Aspergillus niger)
NC1=NN=C(CCCCOCc2cccc(Br)c2)CS1	4 (4: <1 mg/L)	2 (2: 5-20 mg/L)	4 (4: <0.2 mg/L)	4 (4: <0.2 mg/L)	3 (3: 1-5 mg/L)	4 (4: <1 mg/L)	3 (3: 1-5 mg/L)	4 (4: <1 mg/L)	4 (4: <1 mg/L)	3 (3: 1-5 mg/L)	4 (4: <1 mg/L)	3 (3: 1-5 mg/L)	4 (4: <1 mg/L)	4 (4: <0.2 mg/L)	4 (4: <0.2 mg/L)	4 (4: <0.2 mg/L)	4 (4: <0.2 mg/L)
NC1=NN=C(CCCCOCc2ccc(C(F)(F)F)cc2)CS1	2 (2: 5-20 mg/L)	2 (2: 5-20 mg/L)	4 (4: <0.2 mg/L)	4 (4: <0.2 mg/L)	2 (2: 5-20 mg/L)	4 (4: <1 mg/L)	3 (3: 1-5 mg/L)	3 (3: 1-5 mg/L)	4 (4: <1 mg/L)	2 (2: 5-20 mg/L)	4 (4: <1 mg/L)	3 (3: 1-5 mg/L)	4 (4: <1 mg/L)	4 (4: <0.2 mg/L)	4 (4: <0.2 mg/L)	4 (4: <0.2 mg/L)	4 (4: <0.2 mg/L)
CCc1cccc(COCCCCC2=NN=C(N)SC2)c1	2 (2: 5-20 mg/L)	2 (2: 5-20 mg/L)	3 (3: 0.2-1 mg/L)	4 (4: <0.2 mg/L)	2 (2: 5-20 mg/L)	4 (4: <1 mg/L)	2 (2: 5-20 mg/L)	3 (3: 1-5 mg/L)	4 (4: <1 mg/L)	2 (2: 5-20 mg/L)	4 (4: <1 mg/L)	2 (2: 5-20 mg/L)	4 (4: <1 mg/L)	4 (4: <0.2 mg/L)	4 (4: <0.2 mg/L)	4 (4: <0.2 mg/L)	4 (4: <0.2 mg/L)
CCCCc1cccc(COCCCCC2=NN=C(N)SC2)c1	2 (2: 5-20 mg/L)	1 (1: ≥20 mg/L)	1 (1: ≥5 mg/L)	1 (1: ≥5 mg/L)	1 (1: ≥20 mg/L)	2 (2: 5-20 mg/L)	2 (2: 5-20 mg/L)	2 (2: 5-20 mg/L)	2 (2: 5-20 mg/L)	2 (2: 5-20 mg/L)	2 (2: 5-20 mg/L)	2 (2: 5-20 mg/L)	2 (2: 5-20 mg/L)	2 (2: 1-5 mg/L)	2 (2: 1-5 mg/L)	3 (3: 0.2-1 mg/L)	3 (3: 0.2-1 mg/L)
CCc1ccc(OCCCCC2=NN=C(N)SC2)cc1	2 (2: 5-20 mg/L)	2 (2: 5-20 mg/L)	3 (3: 0.2-1 mg/L)	3 (3: 0.2-1 mg/L)	2 (2: 5-20 mg/L)	4 (4: <1 mg/L)	3 (3: 1-5 mg/L)	2 (2: 5-20 mg/L)	4 (4: <1 mg/L)	2 (2: 5-20 mg/L)	4 (4: <1 mg/L)	2 (2: 5-20 mg/L)	4 (4: <1 mg/L)	4 (4: <0.2 mg/L)	4 (4: <0.2 mg/L)	4 (4: <0.2 mg/L)	3 (3: 0.2-1 mg/L)
NC1=NN=C(CCCCOCc2c(F)cccc2Cl)CS1	2 (2: 5-20 mg/L)	1 (1: ≥20 mg/L)	3 (3: 0.2-1 mg/L)	3 (3: 0.2-1 mg/L)	2 (2: 5-20 mg/L)	2 (2: 5-20 mg/L)	2 (2: 5-20 mg/L)	2 (2: 5-20 mg/L)	3 (3: 1-5 mg/L)	2 (2: 5-20 mg/L)	2 (2: 5-20 mg/L)	2 (2: 5-20 mg/L)	2 (2: 5-20 mg/L)	3 (3: 0.2-1 mg/L)	3 (3: 0.2-1 mg/L)	3 (3: 0.2-1 mg/L)	3 (3: 0.2-1 mg/L)
CCCC(C)OCCC1=NN=C(N)SC1 (stereo not drawn)	–	–	3 (3: 0.2-1 mg/L)	2 (2: 1-5 mg/L)	–	1 (1: ≥20 mg/L)	–	–	–	–	3 (3: 1-5 mg/L)	–	2 (2: 5-20 mg/L)	2 (2: 1-5 mg/L)	3 (3: 0.2-1 mg/L)	2 (2: 1-5 mg/L)	4 (4: <0.2 mg/L)
NC1=NN=C(CCCCCc2ccccn2)CS1	–	–	4 (4: <0.2 mg/L)	3 (3: 0.2-1 mg/L)	–	2 (2: 5-20 mg/L)	–	–	–	–	3 (3: 1-5 mg/L)	–	2 (2: 5-20 mg/L)	4 (4: <0.2 mg/L)	3 (3: 0.2-1 mg/L)	3 (3: 0.2-1 mg/L)	4 (4: <0.2 mg/L)
NC1=NN=C(CCOCc2ccccc2)CS1	–	–	2 (2: 1-5 mg/L)	3 (3: 0.2-1 mg/L)	–	1 (1: ≥20 mg/L)	–	–	–	–	3 (3: 1-5 mg/L)	–	1 (1: ≥20 mg/L)	3 (3: 0.2-1 mg/L)	3 (3: 0.2-1 mg/L)	3 (3: 0.2-1 mg/L)	3 (3: 0.2-1 mg/L)
CC(C)c1ccc(C2=NN=C(N)SC2)cc1	–	–	1 (1: ≥5 mg/L)	1 (1: ≥5 mg/L)	–	1 (1: ≥20 mg/L)	–	–	–	–	1 (1: ≥20 mg/L)	–	1 (1: ≥20 mg/L)	2 (2: 1-5 mg/L)	2 (2: 1-5 mg/L)	1 (1: ≥5 mg/L)	1 (1: ≥5 mg/L)
